Experimental data as given in patent US10435388B2, “Selective inhibitors of clinically important mutants of the EGFR tyrosine kinase” (CS PHARMATECH LIMITED, priority 2016, dated 2019).
pIC50: −log10 of the molar value. Where two headings read alike, the source gives them in different places. One block for each molecule: values may come before it.

Tests used:
[1] = tested on: p-EGFR in A431 cells (wild type EGFR, EGF stimulated); experiment: Wild type EGFR A431 autophosphorylation inhibition assay (ELISA); assay type: cell-based, human; details: 2 h treatment, EGF stimulation 10 min
Protocol: (§1) Cellular EGFR Autophosphorylation Assays.
Wild Type EGFR A431 Autophosphorylation Inhibition Assay (ELISA).
After 2 hour treatment with test compounds, add 4.5 μL of EGF (1 μg/mL) into each well and stimulate for 10 min. The rest of the procedure was processed in the same manner as described above for H1975 cells.

A431 cells (WT) = experiment: A431 inhibition assay (cell proliferation), Method B; assay type: cell-based, human; details: cellular proliferation, several runs
Protocol: Cell Proliferation Assays—Method B
A431 Inhibition Assay, (Cell Proliferation).
The rest procedure was conducted in the same manner as described above for H1975 cells.

[2] = tested on: p-EGFR in PC9 cells (Exon 19 deletion EGFR); experiment: Exon19 deletion EGFR (activating single mutant) PC-9 cellular autophosphorylation assay; assay type: cell-based, human; details: 2 h treatment, ELISA
Protocol: as §1
The human lung cell line PC9 (Exon 19 deletion EGFR) is obtained from the American type Culture Collection. […] Cells are grown in a humidified incubator at 37° C. with 5% CO2, Assays to measure cellular phosphorylation of endogenous p-EGFR in cell Iysates are carried out according to the protocol described in the R&D Systems DuoSet IC Human Phospho-EGF R ELISA (R&D Systems catalogue number #DYCI095). 40 μL of cells are seeded (10000 cells/well) in growth medium in Corning black, clear-bottomed 384-well plates and incubated at 37° C., with 5%0/CO2 overnight. […] Plates are incubated for a further 2 h, then following aspiration of medium, 40 μL×lysis buffer is added to each well. Greiner black high bind 384 well plates are coated with capture antibody and then blocked with 3% BSA. Following removal of block, 15 μL of lysate are transferred to the Greiner black high bind 384 well plates and incubated for 2 hours. Following aspiration and washing of the plates with PBS, 20 μL of detection antibody are added and incubated for 2 hours. […] The data obtained with each compound are exported into a suitable software package (such as Origin) to perform curve fitting analysis.

H1975 cells (DM) = experiment: H1975 inhibition assay (cell proliferation), Method B; assay type: cell-based; details: cellular proliferation, several runs
[3] = tested on: p-EGFR in H1975 cells (L858R/T790M double mutant EGFR); details: for IC50: Homo sapiens, NCI-H1975, 2 h, read-out: H1975 IC50 (nM), cellular EGFR autophosphorylation, 2 h treatment, ELISA
PC9 cells (SM) = experiment: PC-9 growth inhibition assay (cell proliferation), Method B; assay type: cell-based, human; details: cellular proliferation, several runs
[4] = tested on: PC9 cells (EGFR d746-750 single mutant); experiment: PC-9 growth inhibition assay (cell proliferation), Method A; assay type: cell-based, human; details: Homo sapiens, PC-9; cellular proliferation, PC9 cells, 72 h, CellTiter-Glo (Table 1); read-out: PC9 IC50 (nM) SM
Protocol: (§2) Cell Proliferation Assays—Method A
(§3) The final concentration was 4,000 cells/well. Add medium only as low control.
(§4) Day-2: Test compounds were dissolved in DMSO at 0.2 mM (200×).
(§5) Day-5: After 72 hours incubation, remove the plates from incubator and equilibrate at room temperature for 15 minutes. Incubate the CellTiter Glo reagents (Promega, G9243) at 37° C. before the experiment. The buffer was equilibrated to room temperature and used to dissolve the substrate. To determine the cell viability, add 30 μL of CellTiter-Glo reagent into each well to be detected. Then shake the plates at room temperature for 10 min and followed by plate read on Envision (PerkinElmer).
(§6) For estimation of IC50, the luminescence readout are transformed to % Inhibition by applying the following equation: The IC50 was then
(§7) [formula] calculated by fitting in XLFit to a four parameters logistic curve.
PC-9 Growth Inhibition Assay (Cell Proliferation)
The inhibition assay for PC-9 cells was processed in the same manner as described for the H1975 cells.

EGFR_d746-750 = EGFR_d746-750 (Homo sapiens, UniProt P00533, DEL746-750); experiment: Enzyme assay, IC50 for single mutant EGFR_d746-750 (Caliper); assay type: biochemical; details: enzyme phosphorylation assay
Chain of EGFR_d746-750 (P00533 with tags, fused parts or gaps DEL746-750): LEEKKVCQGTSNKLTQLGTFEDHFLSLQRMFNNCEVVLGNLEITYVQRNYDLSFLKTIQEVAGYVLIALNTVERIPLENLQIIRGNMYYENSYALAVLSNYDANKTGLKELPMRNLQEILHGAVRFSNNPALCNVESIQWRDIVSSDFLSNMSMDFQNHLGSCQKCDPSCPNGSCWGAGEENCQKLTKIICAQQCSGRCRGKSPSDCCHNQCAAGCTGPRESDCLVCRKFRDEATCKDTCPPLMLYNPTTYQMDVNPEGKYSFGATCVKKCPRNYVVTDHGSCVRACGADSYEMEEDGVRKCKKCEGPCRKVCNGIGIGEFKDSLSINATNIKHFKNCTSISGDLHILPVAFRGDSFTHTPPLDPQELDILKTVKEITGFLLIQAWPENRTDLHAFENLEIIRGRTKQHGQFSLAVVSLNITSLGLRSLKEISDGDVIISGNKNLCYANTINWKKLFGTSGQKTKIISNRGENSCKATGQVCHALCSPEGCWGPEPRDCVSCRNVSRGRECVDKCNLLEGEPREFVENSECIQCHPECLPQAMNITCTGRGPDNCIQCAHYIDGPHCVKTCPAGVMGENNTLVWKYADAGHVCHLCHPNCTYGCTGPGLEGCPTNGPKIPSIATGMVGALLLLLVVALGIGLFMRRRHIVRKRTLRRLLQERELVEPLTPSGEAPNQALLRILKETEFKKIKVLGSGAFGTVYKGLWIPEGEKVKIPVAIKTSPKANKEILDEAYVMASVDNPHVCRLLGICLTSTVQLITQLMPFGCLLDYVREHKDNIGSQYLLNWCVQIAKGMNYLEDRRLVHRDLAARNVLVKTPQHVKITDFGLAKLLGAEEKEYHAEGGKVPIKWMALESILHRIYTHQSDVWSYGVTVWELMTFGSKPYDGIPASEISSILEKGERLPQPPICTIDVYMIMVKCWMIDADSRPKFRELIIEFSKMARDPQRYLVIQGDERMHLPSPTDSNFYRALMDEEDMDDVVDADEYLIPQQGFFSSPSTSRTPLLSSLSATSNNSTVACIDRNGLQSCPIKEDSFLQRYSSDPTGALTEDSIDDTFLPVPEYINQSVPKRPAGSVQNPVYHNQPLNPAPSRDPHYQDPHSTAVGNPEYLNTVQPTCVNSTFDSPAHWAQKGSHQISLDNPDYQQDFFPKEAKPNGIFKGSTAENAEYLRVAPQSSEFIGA
Protocol: (§8) Using the same technique as described in the previous paragraph, various mutated forms of the epidermal growth factor receptor may be isolated from appropriate cell lines which contain them. For example, the EGFR de1746-750 mutant protein may be extracted from PC-9 cells, and the L858R/T790M double mutant EGFR protein may be isolated from H1975 cells.
Determination of IC50 Values for Single Mutant EGFR_d746-750
Dilute all compounds to 500 μM stock solutions in 100% DMSO and make a serial of 4-fold dilution for 10 doses. “Max” and “Min” control contain 100% DMSO. “Max” stands for […], “Min” stands for low control without compounds. Transfer 10 μl of compounds to 90 μl of 1× kinase base buffer to make intermediate dilution. […] Incubate at RT for 1 hr and 25 μl stop buffer to end up reaction. Collect conversion data from Caliper and conversion data from Caliper program. Fit the data in XLfit to obtain IC50 values.

Wt EGFR = biological target: T1, Wt EGFR (Homo sapiens, UniProt P00533); experiment: Enzyme assay, IC50 for wt EGFR (Caliper); assay type: biochemical; details: enzyme phosphorylation assay; read-out: EGFR_WT IC50
T1 construct: isolated from A431 human epidermoid carcinoma cells which overexpress EGF receptor; endogenous in cells; host or cells: A431 human epidermoid carcinoma cells (receptor purified on wheat germ agglutinin sepharose)
T1 sequence (P00533 25-1210): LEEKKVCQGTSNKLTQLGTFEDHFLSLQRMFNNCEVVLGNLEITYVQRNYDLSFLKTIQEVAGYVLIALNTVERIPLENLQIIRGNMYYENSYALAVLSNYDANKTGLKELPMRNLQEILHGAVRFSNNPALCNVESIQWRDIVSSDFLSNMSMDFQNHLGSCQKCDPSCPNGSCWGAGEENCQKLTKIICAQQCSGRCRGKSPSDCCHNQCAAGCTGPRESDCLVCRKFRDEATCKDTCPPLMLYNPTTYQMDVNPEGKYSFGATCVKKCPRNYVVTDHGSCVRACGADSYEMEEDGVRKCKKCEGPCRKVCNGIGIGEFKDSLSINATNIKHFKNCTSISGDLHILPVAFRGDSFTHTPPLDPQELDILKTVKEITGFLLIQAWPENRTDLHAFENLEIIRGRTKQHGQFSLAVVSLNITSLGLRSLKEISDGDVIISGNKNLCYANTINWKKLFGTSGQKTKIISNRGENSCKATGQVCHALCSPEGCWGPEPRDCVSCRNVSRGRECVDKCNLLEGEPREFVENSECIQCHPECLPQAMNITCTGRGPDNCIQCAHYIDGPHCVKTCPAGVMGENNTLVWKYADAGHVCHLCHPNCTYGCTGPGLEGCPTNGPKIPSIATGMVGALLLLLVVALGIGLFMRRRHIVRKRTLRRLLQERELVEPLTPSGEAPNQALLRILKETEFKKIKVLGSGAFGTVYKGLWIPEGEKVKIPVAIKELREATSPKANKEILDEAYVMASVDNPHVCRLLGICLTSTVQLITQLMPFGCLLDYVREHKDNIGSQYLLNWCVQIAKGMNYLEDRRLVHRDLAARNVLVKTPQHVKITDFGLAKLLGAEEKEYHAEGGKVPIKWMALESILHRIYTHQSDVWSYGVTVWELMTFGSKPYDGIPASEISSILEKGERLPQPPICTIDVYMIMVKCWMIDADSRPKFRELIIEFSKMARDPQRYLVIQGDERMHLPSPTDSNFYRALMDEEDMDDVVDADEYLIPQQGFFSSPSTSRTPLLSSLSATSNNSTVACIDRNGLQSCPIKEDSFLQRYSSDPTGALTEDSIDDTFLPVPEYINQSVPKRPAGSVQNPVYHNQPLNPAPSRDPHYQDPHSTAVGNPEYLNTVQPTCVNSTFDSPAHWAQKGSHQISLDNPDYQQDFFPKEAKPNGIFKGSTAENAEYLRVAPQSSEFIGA
Protocol: Purification of Epidermal Growth Factor Receptor Tyrosine Kinase Human EGF receptor tyrosine kinase was isolated from A431 human epidermoid carcinoma cells which overexpress EGF receptor by the following methods. Cells were grown in roller bottles in 50% Delbuco's Modified Eagle and 50% HAM F-12 nutrient media (Gibco) containing 10% fetal calf serum. Approximately 10^9 cells were lysed in two volumes of buffer containing 20 mM 2-(4N-[2-hydroxyethyl]piperazin-1-yl)ethanesulfonic acid (hepes), pH 7.4, 5 mM ethylene glycol bis(2-aminoethyl ether) N,N,N′,N′-tetraacetic acid, 1% Triton X-1OO, 10% glycerol. 0.1 mM sodium orthovanadate, 5 mM sodium fluoride, 4 mM pyrophosphate, 4 mM benzamide, 1 mM dithiothreitol, 80 μg/mL aprotinin, 40 μg/mL leupeptin and 1 mM phenylmethylsulfonyl fluoride. After centrifugation at 25,000×g for 10 minutes, the supernatant was equilibrated for 2 h at […], with 10 mL of wheat germ agglutinin sepharose that was previously equilibrated with 50 mM Hepes, 10% glycerol, 0.1% Triton X-100 and 150 mM NaCl, pH 7.5, (equilibration buffer). Contaminating proteins were washed from the resin with 1M NaCl in equilibration buffer, and the enzyme was eluted with 0.5M N-acetyl-1-D-glucosamine in equilibration buffer, followed by 1 mM urea. The enzyme was eluted with 0.1 mg/ml EGF.
Determination of IC50 Values for Wt EGFR
Dilute all compounds to 500 μM stock solutions in 100% DMSO and make a serial of 4-fold dilution for 10 does. “Max” and “Min” control contain 100% DMSO. “Max” stands for […], “Min” stands for low control without compounds. Transfer 10 μl of compounds to 90 μl of Ix kinase base buffer to make intermediate dilution. Transfer 5 μl of intermediate dilution compounds to the 384-well assay plate, then 10 μl 2.5× enzyme buffer containing (20 nM EGFR, 5 mM DTT, 1× kinase base buffer) were added to assay plate. […] Incubate at RT for 1 hr and 25 μl stop buffer to end up reaction. Collect conversion data from Caliper and conversion data from Caliper program. Fit the data in XLfit to obtain IC50 values.

[5] = tested on: NCI-H1975 cells (EGFR L858R/T790 double mutant); experiment: H1975 inhibition assay (cell proliferation), Method A; assay type: cell-based; details: Homo sapiens; cellular proliferation, NCI-H1975 cells, 72 h, CellTiter-Glo (Table 1); read-out: NCI-H1975 IC50 (nM) DM
Protocol: as §2
H1975 Inhibition Assay (Cell Proliferation)
as §3, §4, §5, §6, §7

EGFR_T790M/L858R = EGFR_T790M/L858R (Homo sapiens, UniProt P00533, L858R/T790M); experiment: Enzyme assay, IC50 for double-mutant EGFR (EGFR_T790M/L858R) (Caliper); assay type: biochemical; details: enzyme phosphorylation assay; read-out: EGFR_L858R/T790 IC50
Chain of EGFR_T790M/L858R (P00533 25-1210 T790M/L858R): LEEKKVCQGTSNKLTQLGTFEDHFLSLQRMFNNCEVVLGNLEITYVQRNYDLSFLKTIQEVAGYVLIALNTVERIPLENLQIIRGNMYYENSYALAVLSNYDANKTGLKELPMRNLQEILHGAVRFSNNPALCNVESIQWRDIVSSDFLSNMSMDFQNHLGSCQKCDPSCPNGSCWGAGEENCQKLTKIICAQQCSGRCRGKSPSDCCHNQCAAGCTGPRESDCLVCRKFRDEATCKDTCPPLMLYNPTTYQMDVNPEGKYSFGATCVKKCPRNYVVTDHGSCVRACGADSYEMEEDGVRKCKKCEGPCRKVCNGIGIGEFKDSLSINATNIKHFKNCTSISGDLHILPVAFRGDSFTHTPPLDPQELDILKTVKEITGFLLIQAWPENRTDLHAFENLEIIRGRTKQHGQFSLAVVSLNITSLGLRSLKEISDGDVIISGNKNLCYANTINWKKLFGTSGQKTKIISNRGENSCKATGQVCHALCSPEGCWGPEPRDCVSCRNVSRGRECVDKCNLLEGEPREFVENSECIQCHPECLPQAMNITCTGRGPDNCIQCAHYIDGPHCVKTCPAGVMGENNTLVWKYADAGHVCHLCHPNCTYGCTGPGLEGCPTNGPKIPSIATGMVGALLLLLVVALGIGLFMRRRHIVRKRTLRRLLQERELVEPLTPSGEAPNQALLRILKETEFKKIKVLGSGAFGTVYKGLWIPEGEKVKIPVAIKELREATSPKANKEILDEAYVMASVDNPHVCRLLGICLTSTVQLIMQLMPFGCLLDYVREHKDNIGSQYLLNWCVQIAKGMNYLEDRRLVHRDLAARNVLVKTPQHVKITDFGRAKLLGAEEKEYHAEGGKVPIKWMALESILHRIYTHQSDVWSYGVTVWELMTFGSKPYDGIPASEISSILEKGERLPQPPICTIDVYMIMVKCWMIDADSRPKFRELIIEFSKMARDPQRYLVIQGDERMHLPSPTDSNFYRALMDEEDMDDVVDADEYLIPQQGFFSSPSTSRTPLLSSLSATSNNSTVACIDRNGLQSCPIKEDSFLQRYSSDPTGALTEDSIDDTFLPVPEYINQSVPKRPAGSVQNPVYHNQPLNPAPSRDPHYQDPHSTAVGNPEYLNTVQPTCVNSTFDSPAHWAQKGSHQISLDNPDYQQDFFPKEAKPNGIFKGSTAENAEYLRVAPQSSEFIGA
Protocol: as §8
Determination of IC50 Values for Double-Mutant EGFR (EGFR_T790M/L858R)
Dilute all compounds to 500 μM stock solutions in 100% DMSO and make a serial of 4-fold dilution for 10 does. “Max” and “Min” control contain 100% DMSO. “Max” stands for […], “Min” stands for low control without compounds. Transfer 10 μl of compounds to 90 μl of 1× kinase base buffer to make intermediate dilution. […] Incubate at RT for 1 hr and 25 μl stop buffer to end up reaction. Collect conversion data from Caliper and conversion data from Caliper program. Fit the data in XLfit to obtain IC50 values.

[6] = tested on: LoVo cells (unmutated EGFR wild type); experiment: LoVo growth inhibition assay (cell proliferation), Method A; assay type: cell-based; details: Homo sapiens, cellular proliferation, 72 h, CellTiter-Glo (Table 1), read-out: LoVo IC50 (nM) WT
Protocol: as §2
LoVo Growth Inhibition Assay (Cell Proliferation)
The rest of the procedure was carried out in the same manner as described for the H1975 cells.

[7] = Homo sapiens, A-431, cellular EGFR autophosphorylation

IC50 [4]: 3.4 nM
pIC50 (EGFR_d746-750): 8.96
pIC50 (Wt EGFR): 8.82
IC50 [5]: 2.4 nM
pIC50 (EGFR_T790M/L858R): 8.89
IC50 [6]: 5860 nM
SMILES: C=CC(=O)Nc1cc(Nc2nccc(-n3cc(S(C)(=O)=O)c4ccccc43)n2)c(OC)cc1N(C)CCN(C)C [Example 9, N-(2-(N-(2-(N,N-Dimethylamino)ethyl)-N-methylamino)-4-methoxy-5-(4-(3-(methylsulfonyl)indol-1-yl)pyrimidin-2-ylamino)phenyl) propenamide]

IC50 [4]: 2.2 nM
pIC50 (EGFR_d746-750): 9.04
pIC50 (Wt EGFR): 8.89
IC50 [5]: 1.5 nM
pIC50 (EGFR_T790M/L858R): 8.92
IC50 [6]: 12000 nM
SMILES: C=CC(=O)Nc1cc(Nc2nccc(-n3c(=O)[nH]c4ccccc43)n2)c(OC)cc1N(C)CCN(C)C [Example 10, N-(2-(N-(2-(N,N-Dimethylamino)ethyl)-N-methylamino)-4-methoxy-5-(4-(2-oxo-2,3-dihydrobenzimidazol-1-yl)pyrimidin-2-ylamino)phenyl) propenamide]

IC50 [4]: 12.3 nM
pIC50 (EGFR_d746-750): 8.51
pIC50 (Wt EGFR): 8.15
IC50 [5]: 7.5 nM
pIC50 (EGFR_T790M/L858R): 8.89
IC50 [6]: 5030 nM
SMILES: C=CC(=O)Nc1cc(Nc2nccc(-n3cc(C)c4ccccc43)n2)c(OC)cc1N(C)CCN(C)C [Example 2, N-(2-(N-(2-(N,N-Dimethylamino)ethyl)-N-methylamino)-4-methoxy-5-(4-(3-methylindol-1-yl)pyrimidin-2-ylamino)phenyl) propenamide]

IC50 [4]: 23.3 nM
pIC50 (EGFR_d746-750): 8.28
pIC50 (Wt EGFR): 8.08
IC50 [5]: 17.9 nM
pIC50 (EGFR_T790M/L858R): 8.82
IC50 [6]: 2810 nM
SMILES: C=CC(=O)Nc1cc(Nc2nccc(-n3cc(Cl)c4ccccc43)n2)c(OC)cc1N(C)CCN(C)C [Example 3, N-(2-(N,N-(2-(N,N-Dimethylamino)ethyl)-N-methylamino)-4-methoxy-5-(4-(3-chloroindol-1-yl)pyrimidin-2-ylamino)phenyl) propenamide]

Further lines, the molecule ahead of its results:

SMILES: C=CC(=O)N1CC[C@@H](Oc2nc(Nc3ccc(N4CCC(N5CCN(C)CC5)CC4)cc3)c(C(N)=O)nc2CC)C1 [ASP8273]
pIC50 [1, 7]: 6.66
pIC50 (A431 cells (WT); Homo sapiens, A-431, 72 h): 6.17
pIC50 ([2]; Homo sapiens, PC-9, 2 h): 7.43
pIC50 (H1975 cells (DM); Homo sapiens, NCI-H1975, 72 h): 7.92
IC50 [3]: 7.8 nM
pIC50 (PC9 cells (SM); Homo sapiens, PC-9, 72 h): 7.80

SMILES: C=CC(=O)N[C@@H]1CN(c2nc(Nc3cn(C)nc3OC)c3ncn(C)c3n2)C[C@H]1F [PF-06747775]
pIC50 ([1]; cellular EGFR autophosphorylation): 7.11
pIC50 (A431 cells (WT); 72 h): 6.18
pIC50 [2]: 8.13
pIC50 (H1975 cells (DM); 72 h): 7.56
pIC50 ([3]; read-out: H1975 IC50, cellular EGFR autophosphorylation, 2 h treatment, ELISA): 8.10
pIC50 (PC9 cells (SM); 72 h): 8.15

SMILES: C=CC(=O)Nc1cc(Nc2nccc(-n3nc(NC(C)C)c4ccccc43)n2)c(OC)cc1N(C)CCN(C)C [Example 43]
pIC50 [1, 7]: 7.13
pIC50 (A431 cells (WT); Homo sapiens, A-431, 72 h): 6.66
pIC50 ([2]; Homo sapiens, PC-9, 2 h): 7.99
pIC50 (H1975 cells (DM); Homo sapiens, NCI-H1975, 72 h): 8.40
IC50 [3]: 10.2 nM
pIC50 (PC9 cells (SM); Homo sapiens, PC-9, 72 h): 8.48

SMILES: C=CC(=O)Nc1cc(Nc2nccc(-c3c[nH]c4c(C#N)cccc34)n2)c(OC)cc1N(C)CCN(C)C [Example 12, N-(2-(N-(2-(N,N-Dimethylamino)ethyl)-N-methylamino)-4-methoxy-5-(4-(7-cyanoindol-3-yl)pyrimidin-2-ylamino)phenyl) propenamide]
IC50 [4]: 5.2 nM
pIC50 (EGFR_d746-750): 8.96
pIC50 (Wt EGFR): 8.82
IC50 [5]: 3.5 nM
pIC50 (EGFR_T790M/L858R): 8.92
IC50 [6]: 2560 nM

SMILES: C=CC(=O)Nc1cc(Nc2nccc(-c3c[nH]c4c(C)cccc34)n2)c(OC)cc1N(C)CCN(C)C [Example 11, N-(2-(N-(2-(N,N-Dimethylamino)ethyl)-N-methylamino)-4-methoxy-5-(4-(7-methylindol-3-yl)pyrimidin-2-ylamino)phenyl) propenamide]
IC50 [4]: 2.9 nM
pIC50 (EGFR_d746-750): 9.00
pIC50 (Wt EGFR): 8.82
IC50 [5]: 2.3 nM
pIC50 (EGFR_T790M/L858R): 8.89
IC50 [6]: 4730 nM
